Data published in the kinase profiling compilation of Christmann-Franck et al. (2016).

Experiments:
Assay in all cases: KINOMEscan competition binding
Conditions in all cases: compound 10.0 µM
STK11 (human) = STK11 (human) (UniProt Q15831)
STK16 (human) = STK16 (human) (UniProt O75716)
CDK9 (human) = CDK9 (human) (UniProt P50750)
FGR (human) = FGR (human) (UniProt P09769)
MAP3K2 (human) = MAP3K2 (human) (UniProt Q9Y2U5)
PRKCD (human) = PRKCD (human) (UniProt Q05655)
[1] = molecular target: JAK1 JH2 pseudokinase (human) (UniProt P23458)
JAK1 JH2 pseudokinase (human), sequence (P23458 whole entry, looked up): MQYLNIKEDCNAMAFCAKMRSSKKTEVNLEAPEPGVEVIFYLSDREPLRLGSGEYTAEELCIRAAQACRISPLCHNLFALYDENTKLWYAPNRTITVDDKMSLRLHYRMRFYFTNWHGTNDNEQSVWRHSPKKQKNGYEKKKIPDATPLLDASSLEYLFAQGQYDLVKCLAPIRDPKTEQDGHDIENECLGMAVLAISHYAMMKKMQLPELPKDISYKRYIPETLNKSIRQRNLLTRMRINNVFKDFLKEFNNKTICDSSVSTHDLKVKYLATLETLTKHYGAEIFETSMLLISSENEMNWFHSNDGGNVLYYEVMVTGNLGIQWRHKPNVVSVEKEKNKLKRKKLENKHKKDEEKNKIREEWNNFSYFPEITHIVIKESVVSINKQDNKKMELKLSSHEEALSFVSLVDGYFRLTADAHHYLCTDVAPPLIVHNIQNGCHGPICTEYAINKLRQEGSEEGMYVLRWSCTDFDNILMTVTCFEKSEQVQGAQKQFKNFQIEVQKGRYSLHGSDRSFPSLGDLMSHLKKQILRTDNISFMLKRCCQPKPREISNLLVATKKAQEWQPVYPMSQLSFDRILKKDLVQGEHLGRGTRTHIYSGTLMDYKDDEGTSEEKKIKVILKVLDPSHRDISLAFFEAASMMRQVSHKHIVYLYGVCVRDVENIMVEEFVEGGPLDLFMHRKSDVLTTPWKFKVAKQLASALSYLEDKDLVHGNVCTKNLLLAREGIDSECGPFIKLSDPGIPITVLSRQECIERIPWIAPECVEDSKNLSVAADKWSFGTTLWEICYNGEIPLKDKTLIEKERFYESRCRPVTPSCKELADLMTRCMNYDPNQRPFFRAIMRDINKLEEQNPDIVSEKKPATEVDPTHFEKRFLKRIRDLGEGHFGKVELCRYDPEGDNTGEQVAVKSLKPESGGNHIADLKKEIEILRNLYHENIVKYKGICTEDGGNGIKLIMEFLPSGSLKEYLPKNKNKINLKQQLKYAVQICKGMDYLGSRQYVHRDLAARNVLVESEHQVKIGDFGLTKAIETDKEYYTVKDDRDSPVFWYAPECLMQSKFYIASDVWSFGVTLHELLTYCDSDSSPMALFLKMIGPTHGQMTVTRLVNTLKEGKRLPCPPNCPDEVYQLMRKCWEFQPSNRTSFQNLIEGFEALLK

GRK1 (human) = GRK1 (human) (UniProt Q15835)
AAK1 (human) = AAK1 (human) (UniProt Q2M2I8)
CAMK2D (human) = CAMK2D (human) (UniProt Q13557)
MARK4 (human) = MARK4 (human) (UniProt Q96L34)
MARK4 (human), sequence (Q96L34 whole entry, looked up): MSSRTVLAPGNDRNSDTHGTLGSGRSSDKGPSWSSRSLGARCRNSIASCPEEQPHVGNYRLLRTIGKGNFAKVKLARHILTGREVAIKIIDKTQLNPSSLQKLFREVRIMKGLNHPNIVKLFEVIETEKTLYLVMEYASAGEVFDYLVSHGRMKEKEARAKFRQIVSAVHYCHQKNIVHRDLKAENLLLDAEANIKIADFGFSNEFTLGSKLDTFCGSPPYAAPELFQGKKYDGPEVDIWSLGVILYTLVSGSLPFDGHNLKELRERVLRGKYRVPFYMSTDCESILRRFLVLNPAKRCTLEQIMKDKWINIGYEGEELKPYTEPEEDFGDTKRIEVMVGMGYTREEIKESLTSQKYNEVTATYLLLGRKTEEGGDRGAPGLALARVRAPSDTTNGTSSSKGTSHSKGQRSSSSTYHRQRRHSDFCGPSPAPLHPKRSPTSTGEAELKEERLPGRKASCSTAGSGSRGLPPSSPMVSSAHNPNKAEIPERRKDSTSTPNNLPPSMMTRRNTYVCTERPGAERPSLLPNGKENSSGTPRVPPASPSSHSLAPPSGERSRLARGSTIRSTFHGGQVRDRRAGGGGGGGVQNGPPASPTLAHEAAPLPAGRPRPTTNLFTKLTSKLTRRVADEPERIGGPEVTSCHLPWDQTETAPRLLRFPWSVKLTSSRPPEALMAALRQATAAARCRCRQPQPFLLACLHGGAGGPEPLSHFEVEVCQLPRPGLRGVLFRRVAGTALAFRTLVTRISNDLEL

[2] = molecular target: JAK3 JH1 catalytic (human) (UniProt P52333)
CDKL5 (human) = CDKL5 (human) (UniProt O76039)
PTK2B (human) = PTK2B (human) (UniProt Q14289)
PTK2B (human), sequence (Q14289 whole entry, looked up): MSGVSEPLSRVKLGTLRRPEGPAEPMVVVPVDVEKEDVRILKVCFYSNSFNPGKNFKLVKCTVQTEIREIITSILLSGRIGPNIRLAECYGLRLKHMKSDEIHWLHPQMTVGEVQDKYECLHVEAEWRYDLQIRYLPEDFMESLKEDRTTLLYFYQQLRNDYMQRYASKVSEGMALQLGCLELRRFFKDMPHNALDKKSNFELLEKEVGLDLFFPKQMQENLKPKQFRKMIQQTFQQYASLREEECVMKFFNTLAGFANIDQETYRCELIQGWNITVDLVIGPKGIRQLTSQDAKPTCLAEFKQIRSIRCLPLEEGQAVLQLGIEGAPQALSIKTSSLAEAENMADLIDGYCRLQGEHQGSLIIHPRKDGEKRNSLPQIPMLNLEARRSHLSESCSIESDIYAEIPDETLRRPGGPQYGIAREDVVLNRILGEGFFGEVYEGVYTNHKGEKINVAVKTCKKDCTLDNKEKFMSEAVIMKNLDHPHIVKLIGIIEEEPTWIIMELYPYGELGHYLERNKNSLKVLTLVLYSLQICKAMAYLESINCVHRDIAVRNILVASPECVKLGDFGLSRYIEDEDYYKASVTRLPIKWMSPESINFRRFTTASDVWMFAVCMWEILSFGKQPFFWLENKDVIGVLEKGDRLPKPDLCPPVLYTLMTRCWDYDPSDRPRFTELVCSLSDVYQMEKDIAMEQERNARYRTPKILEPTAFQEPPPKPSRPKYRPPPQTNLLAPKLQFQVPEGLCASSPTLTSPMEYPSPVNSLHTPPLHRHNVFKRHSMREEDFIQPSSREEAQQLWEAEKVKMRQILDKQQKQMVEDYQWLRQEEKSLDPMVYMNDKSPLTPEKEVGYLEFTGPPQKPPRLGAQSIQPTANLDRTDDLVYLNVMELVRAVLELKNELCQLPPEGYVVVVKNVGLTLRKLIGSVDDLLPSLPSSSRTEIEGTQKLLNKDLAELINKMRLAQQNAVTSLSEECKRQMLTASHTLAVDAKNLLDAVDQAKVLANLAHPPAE

MERTK (human) = MERTK (human) (UniProt Q12866)
CDK2 (human) = CDK2 (human) (UniProt P24941)
MLTK (human) = MLTK (human) (UniProt Q9NYL2)
DAPK3 (human) = DAPK3 (human) (UniProt O43293)
DAPK3 (human), sequence (O43293 whole entry, looked up): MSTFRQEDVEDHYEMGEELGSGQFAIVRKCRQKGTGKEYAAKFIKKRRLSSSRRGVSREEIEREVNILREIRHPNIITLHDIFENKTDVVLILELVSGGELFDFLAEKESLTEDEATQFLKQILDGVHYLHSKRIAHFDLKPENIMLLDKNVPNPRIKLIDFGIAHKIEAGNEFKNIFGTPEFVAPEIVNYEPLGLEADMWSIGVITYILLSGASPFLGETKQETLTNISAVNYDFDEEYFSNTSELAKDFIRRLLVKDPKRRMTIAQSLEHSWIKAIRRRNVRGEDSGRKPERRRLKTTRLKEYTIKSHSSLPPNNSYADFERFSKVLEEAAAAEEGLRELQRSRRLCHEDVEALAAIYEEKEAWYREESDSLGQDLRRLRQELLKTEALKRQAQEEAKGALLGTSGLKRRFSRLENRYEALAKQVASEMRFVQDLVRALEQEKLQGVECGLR

RPS6KA2 KD2 (human) = RPS6KA2 KD2 (human) (UniProt Q15349)
RIPK2 (human) = RIPK2 (human) (UniProt O43353)
MAPK14 (human) = MAPK14 (human) (UniProt Q16539)
LIMK1 (human) = LIMK1 (human) (UniProt P53667)
CLK4 (human) = CLK4 (human) (UniProt Q9HAZ1)
MAP3K15 (human) = MAP3K15 (human) (UniProt Q6ZN16)
CAMK1D (human) = CAMK1D (human) (UniProt Q8IU85)
CAMK1D (human), sequence (Q8IU85 whole entry, looked up): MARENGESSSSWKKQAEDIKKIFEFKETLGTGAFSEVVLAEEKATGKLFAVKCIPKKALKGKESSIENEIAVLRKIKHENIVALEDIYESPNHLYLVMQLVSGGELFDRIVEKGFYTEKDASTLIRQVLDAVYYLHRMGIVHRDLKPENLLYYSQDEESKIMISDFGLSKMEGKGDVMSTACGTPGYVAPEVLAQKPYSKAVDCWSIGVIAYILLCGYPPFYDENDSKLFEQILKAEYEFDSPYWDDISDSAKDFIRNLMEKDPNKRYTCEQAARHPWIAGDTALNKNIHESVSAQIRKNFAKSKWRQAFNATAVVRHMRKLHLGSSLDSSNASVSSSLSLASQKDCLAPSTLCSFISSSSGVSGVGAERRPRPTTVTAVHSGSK

EPHA6 (human) = EPHA6 (human) (UniProt Q9UF33)
RPS6KA5 KD2 (human) = RPS6KA5 KD2 (human) (UniProt O75582)
MST1R (human) = MST1R (human) (UniProt Q04912)
[3] = system: KIT (human), P10721 [L576P]
ICK (human) = ICK (human) (UniProt Q9UPZ9)
CSNK1D (human) = CSNK1D (human) (UniProt P48730)
TTK (human) = TTK (human) (UniProt P33981)
PRKD2 (human) = PRKD2 (human) (UniProt Q9BZL6)
FYN (human) = FYN (human) (UniProt P06241)
GSK3A (human) = GSK3A (human) (UniProt P49840)
PAK1 (human) = PAK1 (human) (UniProt Q13153)
CHUK (human) = CHUK (human) (UniProt O15111)

STK16 (human), sequence (O75716 whole entry, looked up): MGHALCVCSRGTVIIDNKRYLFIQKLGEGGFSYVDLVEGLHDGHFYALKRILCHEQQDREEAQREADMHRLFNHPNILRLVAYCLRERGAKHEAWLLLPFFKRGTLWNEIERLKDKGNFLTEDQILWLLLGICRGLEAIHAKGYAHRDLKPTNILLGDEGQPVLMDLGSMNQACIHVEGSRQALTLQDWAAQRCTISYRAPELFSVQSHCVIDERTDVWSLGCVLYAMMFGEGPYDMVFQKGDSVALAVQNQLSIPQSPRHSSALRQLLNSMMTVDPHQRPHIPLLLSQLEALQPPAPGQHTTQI
PRKCD (human), sequence (Q05655 whole entry, looked up): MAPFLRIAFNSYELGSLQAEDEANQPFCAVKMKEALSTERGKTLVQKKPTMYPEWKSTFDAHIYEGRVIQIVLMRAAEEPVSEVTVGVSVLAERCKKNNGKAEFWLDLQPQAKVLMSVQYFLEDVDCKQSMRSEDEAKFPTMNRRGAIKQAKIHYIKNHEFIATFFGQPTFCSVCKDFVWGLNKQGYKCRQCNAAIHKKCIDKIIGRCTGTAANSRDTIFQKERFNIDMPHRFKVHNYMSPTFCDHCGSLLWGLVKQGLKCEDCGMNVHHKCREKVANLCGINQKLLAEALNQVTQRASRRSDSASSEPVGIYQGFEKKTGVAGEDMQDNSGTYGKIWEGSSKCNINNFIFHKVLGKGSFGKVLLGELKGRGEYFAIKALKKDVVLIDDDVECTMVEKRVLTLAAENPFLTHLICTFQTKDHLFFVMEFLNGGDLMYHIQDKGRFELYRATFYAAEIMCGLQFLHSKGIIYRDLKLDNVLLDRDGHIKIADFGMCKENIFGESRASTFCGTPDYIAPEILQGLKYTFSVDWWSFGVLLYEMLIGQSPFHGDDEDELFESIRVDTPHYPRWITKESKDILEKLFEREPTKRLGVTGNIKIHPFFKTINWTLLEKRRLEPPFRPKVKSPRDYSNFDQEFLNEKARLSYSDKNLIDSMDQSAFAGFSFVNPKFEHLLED

SMILES | kinase still bound, per cent of control (STK11 (human)) [%] | kinase still bound, per cent of control (STK16 (human)) [%] | kinase still bound, per cent of control (CDK9 (human)) [%] | kinase still bound, per cent of control (FGR (human)) [%] | kinase still bound, per cent of control (MAP3K2 (human)) [%] | kinase still bound, per cent of control (PRKCD (human)) [%] | kinase still bound, per cent of control [1] [%] | kinase still bound, per cent of control (GRK1 (human)) [%] | kinase still bound, per cent of control (AAK1 (human)) [%] | kinase still bound, per cent of control (CAMK2D (human)) [%] | kinase still bound, per cent of control (MARK4 (human)) [%] | kinase still bound, per cent of control [2] [%] | kinase still bound, per cent of control (CDKL5 (human)) [%] | kinase still bound, per cent of control (PTK2B (human)) [%] | kinase still bound, per cent of control (MERTK (human)) [%] | kinase still bound, per cent of control (CDK2 (human)) [%] | kinase still bound, per cent of control (MLTK (human)) [%] | kinase still bound, per cent of control (DAPK3 (human)) [%] | kinase still bound, per cent of control (RPS6KA2 KD2 (human)) [%] | kinase still bound, per cent of control (RIPK2 (human)) [%] | other results
COc1cc(N2CCN(C)CC2)ccc1Nc1ncc2c(n1)N(C)c1ccccc1C(=O)N2C | 100 | 100 | 100 | 100 | 32 | 100 | 100 | 100 | 100 | 23 | 100 | 100 | 100 | 100 | 100 | 100 | 100 | 100 | 15 | 100 | kinase still bound, per cent of control (MAPK14 (human)): 100%; kinase still bound, per cent of control (LIMK1 (human)): 100%; kinase still bound, per cent of control (CLK4 (human)): 100%; kinase still bound, per cent of control (MAP3K15 (human)): 100%; kinase still bound, per cent of control (CAMK1D (human)): 100%; kinase still bound, per cent of control (EPHA6 (human)): 100%; kinase still bound, per cent of control (RPS6KA5 KD2 (human)): 100%; kinase still bound, per cent of control (MST1R (human)): 100%; kinase still bound, per cent of control [3]: 100%; kinase still bound, per cent of control (ICK (human)): 100%; kinase still bound, per cent of control (CSNK1D (human)): 100%; kinase still bound, per cent of control (TTK (human)): 26%; kinase still bound, per cent of control (PRKD2 (human)): 0.55%; kinase still bound, per cent of control (FYN (human)): 100%; kinase still bound, per cent of control (GSK3A (human)): 100%; kinase still bound, per cent of control (PAK1 (human)): 100%; kinase still bound, per cent of control (CHUK (human)): 100%
CCN(CC)CCCCNc1ncc2c(n1)N(C)C(=O)N(c1c(Cl)c(OC)cc(OC)c1Cl)C2 | 100 | 100 | 100 | 100 | 6.8 | 100 | 100 | 100 | 100 | 100 | 100 | 100 | 100 | 100 | 100 | 100 | 100 | 100 | 100 | 100 | kinase still bound, per cent of control (MAPK14 (human)): 100%; kinase still bound, per cent of control (LIMK1 (human)): 100%; kinase still bound, per cent of control (CLK4 (human)): 100%; kinase still bound, per cent of control (MAP3K15 (human)): 100%; kinase still bound, per cent of control (CAMK1D (human)): 25%; kinase still bound, per cent of control (EPHA6 (human)): 100%; kinase still bound, per cent of control (RPS6KA5 KD2 (human)): 100%; kinase still bound, per cent of control (MST1R (human)): 100%; kinase still bound, per cent of control [3]: 2.3%; kinase still bound, per cent of control (ICK (human)): 100%; kinase still bound, per cent of control (CSNK1D (human)): 100%; kinase still bound, per cent of control (TTK (human)): 100%; kinase still bound, per cent of control (PRKD2 (human)): 100%; kinase still bound, per cent of control (FYN (human)): 100%; kinase still bound, per cent of control (GSK3A (human)): 100%; kinase still bound, per cent of control (PAK1 (human)): 100%; kinase still bound, per cent of control (CHUK (human)): 100%
CS(=O)(=O)N1CCN(Cc2cc3nc(-c4cccc5[nH]ncc45)nc(N4CCOCC4)c3s2)CC1 | 100 | 100 | 100 | 100 | 100 | 100 | 100 | 100 | 100 | 100 | 100 | 100 | 100 | 100 | 100 | 100 | 100 | 100 | 100 | 100 | kinase still bound, per cent of control (MAPK14 (human)): 100%; kinase still bound, per cent of control (LIMK1 (human)): 100%; kinase still bound, per cent of control (MAP3K15 (human)): 100%; kinase still bound, per cent of control (CAMK1D (human)): 100%; kinase still bound, per cent of control (EPHA6 (human)): 100%; kinase still bound, per cent of control (RPS6KA5 KD2 (human)): 100%; kinase still bound, per cent of control (MST1R (human)): 100%; kinase still bound, per cent of control [3]: 100%; kinase still bound, per cent of control (ICK (human)): 100%; kinase still bound, per cent of control (CSNK1D (human)): 100%; kinase still bound, per cent of control (TTK (human)): 100%; kinase still bound, per cent of control (PRKD2 (human)): 100%; kinase still bound, per cent of control (FYN (human)): 100%; kinase still bound, per cent of control (GSK3A (human)): 100%; kinase still bound, per cent of control (PAK1 (human)): 100%; kinase still bound, per cent of control (CHUK (human)): 100%
